The target of one assay is PLK1 (Homo sapiens, UniProt P53350). Put plainly: PLK1 protein kinase assay (CDC25C phosphorylation, [γ-32P]-ATP). It is filed as biochemical. As to conditions: Table 3; read-out: PLK1 IC50.
The test system of assay [1] is A2780 and A2780/ADR cells. Put plainly: Cell viability assay (Alamar Blue, 72 h), parental/MDR pair, asymmetry ratio. The assay is classed as cell-based, human. As to conditions: paired parental and MDR tumour cell lines; Example 9, FIG. 3. The text has this: In vitro cell viability assays have been used to measure the effect of drug accumulation in paired parental and drug resistant tumour cell lines. The pairs used are the human ovarian carcinoma A2780 line with its MDR counterpart A2780/ADR and the human uterine sarcoma MES-SA line with its MDR counterpart MES-SA/Dx5 [Wesolowska O., et al. (2005) Anticancer Res., 25, 383-389].
Method: Cultivated human tumour cells of the ovarian cell line A2780 and its doxorubicin-resistant pair, A2780/ADR and the uterine cell line MES-SA and its doxorubicin-resistant pair, MES-SA/DX5 were seeded at 3000 cells per well in Nunc 96-well tissue culture plates, 100 μl per well in DMEM media containing 10% foetal calf serum and penicillin/streptomycin. […] The plates were then read at 544/595 nm.
The amount of Alamar Blue reagent reacted represents the metabolic activity of the cells. […] The values were calculated from the average of three individual measurements with blank correction (medium-only control).
The assay was performed on the Biomek FxP, automation platform from Beckman Coulter. The plates were read on the Paradigm plate reader supplied by Beckman Coulter. Asymmetry ratios were calculated as the IC50 value of the compound in the drug resistant cells divided by the IC50 value in the parental cells. […]
For orientation: Alamar Blue is a resazurin reagent that responds to reducing activity.

Results on one compound are retold here after patent US8563542B2 (Cyclacel Limited, priority 2007, dated 2013).

Sequence of PLK1 (P53350 whole entry): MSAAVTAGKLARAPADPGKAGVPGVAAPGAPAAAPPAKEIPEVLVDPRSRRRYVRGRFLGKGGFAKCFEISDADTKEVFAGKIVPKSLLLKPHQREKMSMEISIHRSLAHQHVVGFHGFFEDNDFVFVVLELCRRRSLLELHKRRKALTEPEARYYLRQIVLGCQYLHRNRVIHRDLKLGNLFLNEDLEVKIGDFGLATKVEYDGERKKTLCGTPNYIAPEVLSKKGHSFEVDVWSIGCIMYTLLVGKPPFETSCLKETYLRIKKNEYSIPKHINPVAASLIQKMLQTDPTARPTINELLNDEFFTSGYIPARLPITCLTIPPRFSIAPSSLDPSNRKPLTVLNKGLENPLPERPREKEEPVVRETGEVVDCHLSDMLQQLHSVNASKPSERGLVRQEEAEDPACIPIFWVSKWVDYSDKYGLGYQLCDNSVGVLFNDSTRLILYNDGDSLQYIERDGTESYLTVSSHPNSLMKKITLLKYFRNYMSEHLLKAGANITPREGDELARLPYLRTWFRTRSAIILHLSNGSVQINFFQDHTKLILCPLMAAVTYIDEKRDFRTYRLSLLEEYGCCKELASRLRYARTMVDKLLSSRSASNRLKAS

For orientation: IC50 means the concentration needed to halve the response being measured. For `COc1cc(C(=O)N[C@H]2CC[C@H](N3CCN(CC4CC4)CC3)CC2)ccc1Nc1ncc2c(n1)N(C1CCCC1)CC(C)(C)C(=O)N2C` [Compound 372, 4-(9-cyclopentyl-5,7,7-trimethyl-6-oxo-6,7,8,9-tetrahydro-5H-pyrimido[4,5-b][1,4]diazepin-2-ylamino)-N-((trans)-4-(4-(cyclopropylmethyl)piperazin-1-yl)cyclohexyl)-3-methoxybenzamide], the IC50 on PLK1 was less than 100 nM. In addition, the “Cellular efflux (MDR/parental cell asymmetry in cell viability assays)” value in assay [1] was “low cellular efflux”.
